Laboratory results as given in patent publication US12109177B2 (priority 2021, dated 2024).
Entries after “also recorded” stand apart in the source; their conditions may differ. Read-outs that look alike come from different tables or passages of the source.

Columns and labels:
blood neutrophils [1] = conditions: rabbit, in vivo
VX2 brain tumor = conditions: rabbit, in vivo
flank GL261 tumor = conditions: in vivo
blood neutrophils [2] = conditions: mouse, in vivo

Row | Structure (SMILES) | blood neutrophil count (blood neutrophils [1]) | long-term survivors (VX2 brain tumor) | lymphocyte counts (blood neutrophils [1]) | other blood cell types (blood neutrophils [1]) | time to neutrophil count rebound after spore injection (blood neutrophils [1]) | mice died of treatment-related (immediate) toxicity (flank GL261 tumor; female, C57BL6, mouse) | mice cured (total tumor clearance, absence of any tumor after 3 weeks) (flank GL261 tumor; mouse) | mice with partial tumor clearance (initial reduction, later regrowth) (flank GL261 tumor; mouse) | therapeutic effect of agent alone (flank GL261 tumor; mouse) | blood neutrophil count (blood neutrophils [2]) | other blood cell counts (blood neutrophils [2]) | lymphocyte count (blood neutrophils [2]; ip) | deaths from tumor regrowth (VX2 brain tumor) | intratumoral accumulation of neutrophils (VX2 brain tumor)
1 | O=P1(N(CCCl)CCCl)NCCCO1 (stereo not drawn) [CPA, cyclophosphamide] | significant neutrophil suppression | without any long-term survivor |  |  |  |  |  |  |  |  |  |  |  | 
2 | NC(=O)NO [HU, hydroxyurea] |  | 8 | not significantly affected | has not affected other blood cell types significantly | at least 3 days | 2/12 | 9/12 | 1/12 | did not show any noticeable therapeutic effects | greatly suppressed the neutrophil levels; also recorded: drastically reduced the neutrophil counts | also affected in various degrees | significant drop of lymphocytes | one | effective in suppressing the intratumoral accumulation of neutrophils
